The values below come from US20230295088A1, “INSULIN SENSITIZERS FOR THE TREATMENT OF DIABETES MELLITUS” (University of Iowa Research Foundation, priority 2020, published 2023).

Molecules are shown by their SMILES. Entries after “also recorded” stand apart in the source; their conditions may differ.

One assay has as its system Unc119 KO HBG4 cells. Nature of the assay: 3H-Deoxy-D-Glucose uptake in Unc119 KO HBG4 cells. Format: cell-based, mouse. As for the experimental part:
Unc119 and Unc119b are important for the insulin sensitizing effect of C59. After identifying Unc119 proteins as molecular targets for C59, it was tested whether those proteins were responsible for the insulin sensitizing activity of C59. To this end Unc119 and Unc119b KO HBG4 cells were generated using CRISPR/Cas9 technology. For each of those cell lines two gRNA surrounding the start codon were used, thus resulting in a deletion of a fragment of the Unc119 genes that includes the ATG. Deletion of Unc119 and Unc119b in clonal cell lines were screened and verified by PCR (FIG. 4E). The effect of C59 on insulin-stimulated. […] To further test this finding, 3H-Deoxy-D-Glucose uptake in WT, Unc119 KO and Unc119b KO HBG4 cells treated with vehicle, insulin, C59 alone and C59 with insulin was measured.

In another assay the target is T1, PPARg (Homo sapiens, UniProt P37231).
T1 sequence (P37231 1-505): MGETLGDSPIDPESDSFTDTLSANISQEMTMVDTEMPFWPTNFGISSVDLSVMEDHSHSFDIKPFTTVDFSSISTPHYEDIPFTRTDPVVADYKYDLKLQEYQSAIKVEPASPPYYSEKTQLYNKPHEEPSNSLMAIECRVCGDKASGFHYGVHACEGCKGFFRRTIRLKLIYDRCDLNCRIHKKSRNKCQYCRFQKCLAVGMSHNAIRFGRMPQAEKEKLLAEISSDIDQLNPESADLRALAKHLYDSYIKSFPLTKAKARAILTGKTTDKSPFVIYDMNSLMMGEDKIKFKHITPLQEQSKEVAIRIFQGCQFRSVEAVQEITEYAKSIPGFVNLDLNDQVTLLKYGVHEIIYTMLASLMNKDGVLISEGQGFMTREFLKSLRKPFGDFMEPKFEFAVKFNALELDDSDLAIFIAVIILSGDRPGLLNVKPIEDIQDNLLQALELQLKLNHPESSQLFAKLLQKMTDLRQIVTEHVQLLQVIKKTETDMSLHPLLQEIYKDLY
Nature of the assay: Luminescent PPARg reporter assay in vitro. Format: cell-based. An excerpt:
C3 is not liver toxic and acts through a different mechanism than TZDs. […] Deleterious side effect or TZDs are due to their agonism of PPARg.

Another assay deals with lean mice. Nature of the assay: Glucose tolerance test in lean mice. Format: in vivo, mouse. The conditions noted are these: single injection before GTT. As for the experimental part:
C3 improves glucose tolerance in lean and obese insulin resistant mice. To test whether C3 improves glucose handling, lean mice were injected with vehicle or C3 30 minutes before performing a glucose tolerance test. […] To further determine if C3 can reverse glucose intolerance, WT mice were made insulin-resistant by feeding them a high fat diet (HFD) for a period of 10 weeks. Diet induced obese (DIO) mice were then injected with vehicle or C3 for 2 weeks while remaining on HFD. […] Together those results establish in vivo efficacy of C3 for the treatment of insulin resistance.

The target in a further assay is T2, Unc119b (Mus musculus, UniProt Q8C4B4).
T2 construct: endogenous in cells
The assay can be described thus: Proteome Integral Solubility Alteration (PISA) assay, Unc119b. Also on record: dose or concentration left out as unconfirmed. Format: binding. The text has this: Identification of the molecular target of C59. Since the discovery of C59 as an insulin sensitizer was achieved using a phenotypic screen, the molecular target of the compound was unknown. To identify the target, a Proteome Integral Solubility Alteration (PISA) assay was used. […] To measure the shift in thermal stability, constructs coding for Unc119-HiBiT and Unc119b-HiBit were generated, thus allowing the quantitative detection of those proteins by adding LgBiT and furimazin to the lysates and measuring luminescence. Crude extract from cells transfected with Unc119-HiBiT or Unc119b-HiBiT, were incubated with DMSO or C59 for 10 minutes, aliquoted, heated for 3 minutes at the indicated temperature and allowed to cool down to room temperature before adding LgBiT and furimazin and reading luminescence on a plate reader.

T2 sequence (Q8C4B4 whole entry): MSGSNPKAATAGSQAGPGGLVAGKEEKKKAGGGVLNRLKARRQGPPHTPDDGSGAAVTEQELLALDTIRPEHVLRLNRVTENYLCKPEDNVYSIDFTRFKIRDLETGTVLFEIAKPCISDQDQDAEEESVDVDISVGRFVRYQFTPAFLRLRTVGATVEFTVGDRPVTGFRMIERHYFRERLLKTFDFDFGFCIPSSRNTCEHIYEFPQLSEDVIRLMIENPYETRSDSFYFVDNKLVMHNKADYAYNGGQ

With `O=C(Nc1ccc(Cl)c(Cl)c1)C12CC3CC(CC(C3)C1)C2` [Compound C59], in the assay on Unc119 KO HBG4 cells (no insulin), the “3H-Deoxy-D-Glucose uptake, compound alone” value is reported as “did not stimulate”. In addition, the “insulin stimulated 3H-Deoxy-D-Glucose uptake” value in the assay on Unc119 KO HBG4 cells (with insulin) was “failed to do so”. Moreover, on PPARg, the PPARg agonist activity result was “neither C3 nor C59 have PPARγ agonist activity”. Also, the “glucose clearance in glucose tolerance test” value in the assay with lean mice was “improvement”. Also, the “thermostability of Unc119b (PISA)” value at Unc119b (live cells, vs DMSO and C29) is recorded as “increased the thermostability; also recorded: concentration dependent increased thermostability”; on Unc119b (lysates (crude extract)), “increased the thermostability”.
